Numbers after ± are expanded uncertainties.
Conditions: Liquid, Ebulliometric method (Recirculating still)

CCCCN [1-butanamine]
vapor or sublimation pressure (308.3 K): 19.99 ± 0.45 kPa | vapor or sublimation pressure (314.7 K): 26.66 ± 0.46 kPa | vapor or sublimation pressure (319.9 K): 33.33 ± 0.5 kPa | vapor or sublimation pressure (328.2 K): 46.66 ± 0.54 kPa | vapor or sublimation pressure (334.8 K): 59.99 ± 0.57 kPa | vapor or sublimation pressure (337.9 K): 66.66 ± 0.66 kPa | vapor or sublimation pressure (345.1 K): 86.66 ± 0.7 kPa | vapor or sublimation pressure (350 K): 101.33 ± 0.72 kPa

CCNCC [diethylamine]
vapor or sublimation pressure (294.7 K): 26.66 ± 0.49 kPa | vapor or sublimation pressure (299.5 K): 33.33 ± 0.51 kPa | vapor or sublimation pressure (307.6 K): 46.66 ± 0.56 kPa | vapor or sublimation pressure (316.7 K): 66.66 ± 0.63 kPa | vapor or sublimation pressure (323.9 K): 86.66 ± 0.72 kPa | vapor or sublimation pressure (328.3 K): 101.33 ± 0.78 kPa

C1CCNC1 [pyrrolidine]
vapor or sublimation pressure (316.9 K): 19.99 ± 0.45 kPa | vapor or sublimation pressure (323.4 K): 26.66 ± 0.46 kPa | vapor or sublimation pressure (329 K): 33.33 ± 0.49 kPa | vapor or sublimation pressure (337.6 K): 46.66 ± 0.54 kPa | vapor or sublimation pressure (347.5 K): 66.66 ± 0.61 kPa | vapor or sublimation pressure (354.9 K): 86.66 ± 0.71 kPa | vapor or sublimation pressure (359.4 K): 101.33 ± 0.77 kPa

— the NIST ThermoML archive (doi:10.1021/je3009649)
